Some test systems named below: SK-MEL-28; OVCAR-3; SF-295; M14; A549; RPMI-8226; NCI-H522; HL-60; K562; T47D; SK-MEL-2; UO-31; LOX IMVI; HOP-62; NCI-H460; 786-0; HOP-92; Malme-3M; HCC 2998; UACC-257.
Assay in all cases: inhibition of tumour cell growth, NCI panel, 48 h

Structures are written as SMILES.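 Grown in 96-well plates, cells were treated for 48 hours with each compound at five concentrations. Insufficient inhibition: endpoint recorded as highest concentration tested. GI50 = concentration required for 50% inhibition of growth.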 Calls of active or inactive are those of the source. Rule as the data show it: active = GI50 up to about 1.1 µM and inactive = higher.

As for `Nc1c(O)c(C(=O)O)cc2ccccc12`, the GI50 in the assay with SK-MEL-28 was 37.2 µM (inactive); in the assay with OVCAR-3, 24.3 µM (inactive); in the assay with SF-295, 51.8 µM (inactive); in the assay with M14, 17.7 µM (inactive); in the assay on A549 it was 45.4 µM (inactive); in the assay with RPMI-8226 it was 33.3 µM (inactive). Moreover, the GI50 in the assay on NCI-H522 is 17.7 µM (inactive); with HL-60, 32.7 µM (inactive); in the assay with K562 it was 31.8 µM (inactive); in the assay with T47D it was 37 µM (inactive); with SK-MEL-2 it was 17.7 µM (inactive); in the assay on UO-31 it was 47.3 µM (inactive). Further, the GI50 in the assay on LOX IMVI was 10.6 µM (inactive); in the assay with HOP-62, > 100 µM (inactive); in the assay with NCI-H460 it was 39.6 µM (inactive); in the assay on 786-0 it was 19.6 µM (inactive); in the assay with HOP-92, 35 µM (inactive); in the assay with Malme-3M, 15.3 µM (inactive). For the same compound, the GI50 in the assay with HCC 2998 is 94 µM (inactive); in the assay with UACC-257, 17.3 µM (inactive).

For `COC(=O)C1=C(C(=O)OC)SC2(S1)C(C(=O)OC)=C(C(=O)OC)Sc1c2ssc1=O`, the GI50 was 1.46 µM (inactive) in the assay on SK-MEL-28; 0.904 µM (active) in the assay with OVCAR-3; 11.4 µM (inactive) in the assay on SF-295; 1.12 µM (inactive) in the assay with M14; 9.66 µM (inactive) with A549; 0.982 µM (active) in the assay with RPMI-8226. The GI50 in the assay with NCI-H522 was 0.177 µM (active); in the assay on HL-60, 0.016 µM (active); with K562 it was 0.547 µM (active); with T47D it was 1.12 µM (active); in the assay on SK-MEL-2 it was 1.78 µM (inactive); in the assay on UO-31, 1.63 µM (inactive). Also, the GI50 is 0.208 µM (active) with LOX IMVI; 1.83 µM (inactive) in the assay with HOP-62; 2.88 µM (inactive) in the assay with NCI-H460; 0.456 µM (active) in the assay with 786-0; 0.826 µM (active) in the assay with HOP-92; 0.61 µM (active) with Malme-3M. Further, the GI50 with HCC 2998 is 1.31 µM (inactive); in the assay on UACC-257, 1.51 µM (inactive).

Consider `Cc1c2cc[n+](C)c(C)c2cc2c1[nH]c1ccccc12`, for which the GI50 is 5.41 µM (inactive) in the assay on SK-MEL-28; 5 µM (inactive) in the assay with OVCAR-3; 2.27 µM (inactive) in the assay with SF-295; 25.2 µM (inactive) in the assay on M14; 1.59 µM (inactive) in the assay with A549; 6.07 µM (inactive) in the assay with RPMI-8226. Moreover, the GI50 is 2.86 µM (inactive) in the assay on NCI-H522; 16.9 µM (inactive) in the assay with HL-60; 4.94 µM (inactive) with K562; 2.14 µM (inactive) in the assay with T47D; 6.73 µM (inactive) with SK-MEL-2; 67.6 µM (inactive) in the assay with UO-31. The GI50 in the assay on LOX IMVI was 21.7 µM (inactive); in the assay on HOP-62 it was 3.16 µM (inactive); in the assay with NCI-H460 it was 3.37 µM (inactive); in the assay with 786-0, 0.646 µM (active); in the assay with HOP-92, 7.46 µM (inactive); with Malme-3M, 2.72 µM (inactive). The GI50 in the assay on HCC 2998 was 7.78 µM (inactive); in the assay on UACC-257 it was 10.8 µM (inactive).

Regarding `COc1ccc(C2C(C)C(=O)C(C)C(c3ccc(OC)cc3)N2N=O)cc1` (stereo not given), the GI50 is > 640 µM (inactive) in the assay with SK-MEL-28; 454 µM (inactive) with OVCAR-3; 126 µM (inactive) with SF-295; 537 µM (inactive) with M14; 239 µM (inactive) with A549; > 1000 µM (inactive) with RPMI-8226. Also, the GI50 was > 427 µM (inactive) with NCI-H522; > 1000 µM (inactive) in the assay with HL-60; > 1000 µM (inactive) in the assay on K562; 127 µM (inactive) in the assay with T47D; 215 µM (inactive) with SK-MEL-2; 495 µM (inactive) in the assay on UO-31. The GI50 was 453 µM (inactive) in the assay on LOX IMVI; 87.1 µM (inactive) in the assay on HOP-62; > 659 µM (inactive) with NCI-H460; 84.3 µM (inactive) in the assay on 786-0; 53.5 µM (inactive) in the assay with HOP-92; > 537 µM (inactive) in the assay on Malme-3M. For the same compound, the values for the GI50 in the assay with HCC 2998 and with UACC-257 were > 750 µM (inactive) and > 703 µM (inactive), respectively.

Take `COC1N(C2CC(O)C(CO)O2)C(=O)NC(=O)C1(F)Br` (stereo not given): the GI50 is 9.86 µM (inactive) with SK-MEL-28; 10.7 µM (inactive) in the assay on OVCAR-3; 2.83 µM (inactive) in the assay with SF-295; 15 µM (inactive) in the assay on M14; 1.12 µM (active) with A549; 19.3 µM (inactive) in the assay on RPMI-8226. The GI50 in the assay on NCI-H522 was 49.1 µM (inactive); in the assay on HL-60, > 50 µM (inactive); in the assay with K562, 36.8 µM (inactive); in the assay on T47D, > 72.3 µM (inactive); with SK-MEL-2, > 92 µM (inactive); in the assay with UO-31, 10.3 µM (inactive). Moreover, the GI50 in the assay with LOX IMVI is 6.1 µM (inactive); in the assay with HOP-62, 1.45 µM (inactive); with NCI-H460, 0.346 µM (active); with 786-0 it was 5.01 µM (inactive); in the assay on HOP-92, 22 µM (inactive); in the assay with Malme-3M, 15.1 µM (inactive). For the same compound, the results for the GI50 in the assay on HCC 2998 and in the assay with UACC-257 were 0.887 µM (active) and 70.5 µM (inactive), respectively.

Consider `Cc1cnc(NCCCN(C)C)c2c1[nH]c1ccc3cc(O)ccc3c12`, for which the GI50 is 1.39 µM (inactive) in the assay with SK-MEL-28; 0.505 µM (active) in the assay on OVCAR-3; 0.7 µM (active) with SF-295; 1.28 µM (inactive) with M14; 0.365 µM (active) with A549; 0.6 µM (active) with RPMI-8226. For the same compound, the GI50 in the assay on NCI-H522 is 0.129 µM (active); in the assay with HL-60, 3.32 µM (inactive); with K562, 1.28 µM (inactive); with T47D, 0.485 µM (active); in the assay with SK-MEL-2 it was 1.03 µM (active); in the assay on UO-31, 2.03 µM (inactive). The GI50 in the assay with LOX IMVI is 0.247 µM (active); in the assay on HOP-62 it was 0.267 µM (active); in the assay on NCI-H460, 0.0439 µM (active); in the assay on 786-0, 0.2 µM (active); with HOP-92, 0.187 µM (active); with Malme-3M it was 0.879 µM (active). In addition, the GI50 was 0.326 µM (active) in the assay on HCC 2998 and 4.6 µM (inactive) in the assay with UACC-257.

Consider `Cc1cc(-c2c(F)cc3c4nn([C@H]5CC[C@@H](N(C)C)CC5)c(=O)c-4cn(C4CC4)c3c2F)cc(C)n1`, for which the GI50 in the assay with SK-MEL-28 was 0.687 µM (active); in the assay with OVCAR-3 it was 0.805 µM (active); in the assay on SF-295, 0.169 µM (active); in the assay on M14 it was 0.46 µM (active); in the assay on A549, 0.161 µM (active); in the assay on RPMI-8226, 1.11 µM (active). Also, the GI50 with NCI-H522 was 0.169 µM (active); in the assay with HL-60, 0.0383 µM (active); in the assay with K562, 0.0297 µM (active); in the assay with T47D, 0.347 µM (active); in the assay with SK-MEL-2, 0.82 µM (active); with UO-31, 1.59 µM (inactive). Further, the GI50 in the assay with LOX IMVI is 0.0998 µM (active); with HOP-62 it was 0.097 µM (active); in the assay on NCI-H460, < 0.0224 µM (active); in the assay on 786-0, 0.133 µM (active); in the assay with HOP-92, 0.0453 µM (active); in the assay with Malme-3M it was 0.38 µM (active). The GI50 in the assay with HCC 2998 was 0.29 µM (active); with UACC-257, 1.25 µM (inactive).

Consider `COc1c(C(=O)/C(=N/Nc2ccc(C(=O)O)cc2)C(C)=O)c(O)cc2occc12`, for which the GI50 is > 100 µM (inactive) in the assay with SK-MEL-28; > 100 µM (inactive) with OVCAR-3; 82.8 µM (inactive) in the assay with SF-295; > 100 µM (inactive) in the assay with M14; > 100 µM (inactive) with A549; > 100 µM (inactive) in the assay with RPMI-8226. Moreover, the GI50 is 51.3 µM (inactive) with NCI-H522; 42.8 µM (inactive) in the assay with HL-60; > 100 µM (inactive) in the assay with K562; > 100 µM (inactive) with T47D; > 100 µM (inactive) with SK-MEL-2; > 100 µM (inactive) with UO-31. The GI50 with LOX IMVI is > 100 µM (inactive); in the assay on HOP-62, > 100 µM (inactive); in the assay on NCI-H460 it was 82 µM (inactive); in the assay with 786-0, > 100 µM (inactive); in the assay with HOP-92, 43.4 µM (inactive); in the assay with Malme-3M it was 90.8 µM (inactive). Further, the GI50 in the assay with HCC 2998 and in the assay on UACC-257 was > 100 µM (inactive) throughout.

As to `CC[C@@H]1CSC(/C=C/C2OC3OC(C)(C)OC3C3OC(C)(C)OC23)=N1` (stereo not given in full), the GI50 was 11.9 µM (inactive) in the assay with SK-MEL-28; 4.97 µM (inactive) in the assay on OVCAR-3; 18.6 µM (inactive) in the assay on SF-295; 10 µM (inactive) in the assay on M14; 22.5 µM (inactive) in the assay on A549; 5.78 µM (inactive) with RPMI-8226. Further, the GI50 in the assay with NCI-H522 is 3.18 µM (inactive); in the assay with HL-60, 2.34 µM (inactive); in the assay on K562 it was 3.91 µM (inactive); with T47D, 4.25 µM (inactive); with SK-MEL-2 it was 14.1 µM (inactive); with UO-31, 10.8 µM (inactive). Besides, the GI50 in the assay with LOX IMVI is 6.53 µM (inactive); in the assay on HOP-62, 22.9 µM (inactive); with NCI-H460, 21.5 µM (inactive); in the assay on 786-0, 3.98 µM (inactive); in the assay on HOP-92 it was 3.7 µM (inactive); in the assay with Malme-3M, 10.9 µM (inactive). Moreover, the figures for the GI50 with HCC 2998 and with UACC-257 were 3.03 µM (inactive) and 10.1 µM (inactive), respectively.

Take `Cc1cc(=O)nc(Sc2ccc([N+](=O)[O-])cc2[N+](=O)[O-])[nH]1`: the GI50 with SK-MEL-28 was 20 µM (inactive); in the assay on OVCAR-3, 17 µM (inactive); in the assay with SF-295, > 50.5 µM (inactive); with M14 it was 16.4 µM (inactive); in the assay on A549 it was 18.5 µM (inactive); with RPMI-8226, 3.9 µM (inactive). Also, the GI50 with NCI-H522 is 7.23 µM (inactive); with HL-60, 3.33 µM (inactive); with K562, 3.4 µM (inactive); in the assay on T47D it was 17.5 µM (inactive); in the assay on SK-MEL-2, 20.6 µM (inactive); with UO-31 it was 17 µM (inactive). Besides, the GI50 in the assay on LOX IMVI was 2.81 µM (inactive); in the assay with HOP-62 it was 24.5 µM (inactive); in the assay on NCI-H460 it was 23 µM (inactive); in the assay with 786-0 it was 16.7 µM (inactive); in the assay with HOP-92, 6.64 µM (inactive); in the assay with Malme-3M it was 17.3 µM (inactive). Besides, the GI50 in the assay with HCC 2998 is 16.3 µM (inactive); with UACC-257, 21.2 µM (inactive).
